Like-named read-outs stand apart in the source and are kept apart here.
Columns and labels:
[1] = Solubility in aqueous solutions (Table 3); type: physicochemical; settings: aqueous solution
Procedure: The skilled person understands that the pH of the gastrointestinal tract changes along its length. […] For more detail see, for example, Measurement of gastrointestinal pH profiles in normal ambulant human subjects, Gut. […] Improved solubility is expected to result in improved absorption, and therefore improved oral bioavailability.
In an embodiment prodrugs of the invention are administered intravenously. High prodrug solubility is advantageous in order to reduce the volume of solution administered to the patient, and to reduce the risk of damage to the circulatory system. Solubility of >10 mg/mL is preferred.

[2] = molecular target: T1, human ether a go-go related gene (hERG) K+ channel (Homo sapiens, UniProt Q12809); experiment: hERG assay, IonWorks patch clamp electrophysiology; type: cell-based; settings: Chinese Hamster Lung cell line stably expressing hERG; IonWorks Quattro
T1 construct: a Chinese Hamster Lung cell line stably expressing the full length hERG channel; expressed in transfected cells; host or cells: Chinese Hamster Lung cell line
Procedure: (§1) Compounds of the invention were tested for inhibition of the human ether a go-go related gene (hERG) K^+ channel using IonWorks patch clamp electrophysiology. 8 Point concentration-response curves were generated on two occasions using 3-fold serial dilutions from the maximum assay concentration (33 uM). Electrophysiological recordings were made from a Chinese Hamster Lung cell line stably expressing the full length hERG channel. Single cell ion currents were measured in the perforated patch clamp configuration (100 ug/mL amphoterocin) at room temperature using an IonWorks Quattro instrument. The internal solution contained 140 mM KCl, 1 mM MgCl2, 1 mM EGTA and 20 mM HEPES and was buffered to pH 7.3. The external solution contained 138 mM NaCl, 2.7 mM KCl, 0.9 mM CaCl2, 0.5 mM MgCl2, 8 mM Na2HPO4 and 1.5 mM KH2PO4, and was buffered to pH 7.3. Cells were clamped at a holding potential of […] for 30 s and then stepped to +40 mV for 1 s. This was followed by a hyperpolarising step of 1 s to […] to evoke the hERG tail current. This sequence was repeated 5 times at a frequency of 0.25 Hz. Currents were measured from the tail step at the 5th pulse, and referenced to the holding current. Compounds were incubated for 6-7 min prior to a second measurement of the hERG signal using an identical pulse train. A minimum of 17 cells were required for each pIC50 curve fit. A control compound (quinidine) was used.

hERG K+ channel = molecular target: T2, hERG K+ channel (Homo sapiens, UniProt Q12809); experiment: hERG assay, IonWorks patch clamp electrophysiology; type: cell-based; settings: human, pH 7.3; 11 uM; Chinese Hamster Lung cell line stably expressing hERG
T2 construct: a Chinese Hamster Lung cell line stably expressing the full length hERG channel; expressed in transfected cells; host or cells: Chinese Hamster Lung cell line
Procedure: as §1

[3] = Pharmacokinetics: exposure of tonabersat in plasma after oral or intravenous dosing of prodrugs to rats; type: in vivo; settings: fasted male Sprague Dawley rats; for % exposure of tonabersat after dosing the prodrugs of the invention via: Intravenous dosing (iv): compared to equimolar amount of tonabersat (0.78 mg/kg intravenous dosing); for % exposure of tonabersat after dosing the prodrugs of the invention via: Oral dosing (po): compared to equimolar amount of tonabersat (5.00 mg/kg oral dosing)
Procedure: Example Prodrugs of the claimed invention were dosed either intravenously or orally to fasted male Sprague Dawley rats. The rats underwent surgery for jugular vein cannulation 48 h prior to dosing. Following dosing, 0.25 mL blood samples were taken via the cannulae at 0, 5, 10, 20, 30, 45, 60, 120, 240 & 360 min in EDTA coated tubes. Tubes were spun at 13,000 rpm for 4 min and 100 ul of supernatant taken immediately and stored at −80° C. prior to analysis. Plasma samples were analysed by LC-MS/MS following extraction by protein precipitation, and levels of parent prodrug and tonabersat were measured by MRM (Multiple Reaction Monitoring) analysis against an extracted calibration curve of plasma samples spiked with the Example prodrug and tonabersat.
The exposure of tonabersat in plasma following dosing of the prodrugs of the invention was compared directly to the exposure observed following dosing of an equimolar amount of tonabersat under analogous assay conditions (5.00 mg/kg oral dosing or 0.78 mg/kg intravenous dosing). In an embodiment prodrugs of the present invention have >10% exposure of tonabersat obtained following either oral or intravenous dosing of the prodrug to a human or animal subject, compared to the exposure obtained from dosing an equimolar amount of tonabersat itself. In an embodiment the exposure of tonabersat following dosing of the prodrugs is >20%, or >30%, or >40%, or >50%, or preferably >70% compared to the exposure obtained from dosing an equimolar amount of tonabersat itself.

high K+ evoked CSD [4] = settings: rats; cited from earlier work
[5] = tested on: unique stereo-selective site in rat and human brains; settings: cited from earlier work
high K+ evoked CSD [6] = settings: cats; cited from earlier work
[7] = tested on: unique stereo-selective site in rat and human brains; settings: cited from earlier work; remark: listed apart in the source

T2 sequence (Q12809 whole entry): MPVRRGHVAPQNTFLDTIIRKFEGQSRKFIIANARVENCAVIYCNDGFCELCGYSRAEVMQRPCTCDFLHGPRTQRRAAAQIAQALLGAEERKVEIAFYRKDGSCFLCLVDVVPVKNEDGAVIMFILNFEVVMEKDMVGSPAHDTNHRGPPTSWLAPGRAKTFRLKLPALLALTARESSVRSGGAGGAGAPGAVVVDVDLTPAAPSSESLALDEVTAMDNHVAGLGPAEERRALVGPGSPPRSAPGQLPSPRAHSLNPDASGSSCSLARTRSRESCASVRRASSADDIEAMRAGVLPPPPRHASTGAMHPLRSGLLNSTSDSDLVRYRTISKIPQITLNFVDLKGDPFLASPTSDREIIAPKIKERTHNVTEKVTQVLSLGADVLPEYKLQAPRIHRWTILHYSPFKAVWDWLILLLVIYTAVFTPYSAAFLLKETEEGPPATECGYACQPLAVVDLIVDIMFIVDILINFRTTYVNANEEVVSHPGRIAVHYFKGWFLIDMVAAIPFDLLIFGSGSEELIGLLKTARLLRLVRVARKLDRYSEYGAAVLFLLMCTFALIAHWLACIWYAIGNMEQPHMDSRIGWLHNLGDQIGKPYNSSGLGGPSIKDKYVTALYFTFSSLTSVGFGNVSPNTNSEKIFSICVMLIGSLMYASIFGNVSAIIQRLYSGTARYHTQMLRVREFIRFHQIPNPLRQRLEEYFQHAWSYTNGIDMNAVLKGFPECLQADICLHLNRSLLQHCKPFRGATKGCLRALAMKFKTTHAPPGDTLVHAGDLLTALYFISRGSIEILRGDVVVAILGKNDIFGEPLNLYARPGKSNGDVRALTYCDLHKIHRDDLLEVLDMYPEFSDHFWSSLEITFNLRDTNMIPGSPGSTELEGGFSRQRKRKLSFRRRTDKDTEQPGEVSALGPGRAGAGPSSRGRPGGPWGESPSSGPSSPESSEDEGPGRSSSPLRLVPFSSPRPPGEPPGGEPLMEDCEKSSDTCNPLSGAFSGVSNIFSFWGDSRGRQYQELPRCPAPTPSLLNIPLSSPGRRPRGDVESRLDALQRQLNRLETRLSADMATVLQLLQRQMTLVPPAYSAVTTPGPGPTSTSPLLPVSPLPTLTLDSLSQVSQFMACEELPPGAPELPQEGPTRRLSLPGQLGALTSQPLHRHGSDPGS
T1 sequence (Q12809 whole entry): as above

Structure (SMILES) | solubility ([1]; aqueous buffer, pH not given) [µg/mL] | % exposure of tonabersat after dosing the prodrugs of the invention via: Intravenous dosing (iv) [3] | % exposure of tonabersat after dosing the prodrugs of the invention via: Oral dosing (po) [3] | IC50 [2] [µM] | inhibition at 11 µM (hERG K+ channel) [%] | other results
CC(=O)c1ccc2c(c1)[C@H](NC(=O)c1ccc(F)c(Cl)c1)[C@H](OC(=O)N[C@@H](CCCCN)C(=O)O)C(C)(C)O2.Cl [Example 9, (2S)-2-[({[(3S,4S)-6-acetyl-4-[(3-chloro-4-fluorobenzene)amido]-2,2-dimethyl-3,4-dihydro-2H-1-benzopyran-3-yl]oxy}carbonyl)amino]-6-aminohexanoic acid hydrochloride] |  | <LLOQ | <LLOQ |  | 8 | solubility ([1]; pH 4.9, aqueous buffer): 10000 µg/mL
CC(=O)c1ccc2c(c1)[C@H](NC(=O)c1ccc(F)c(Cl)c1)[C@H](OC(=O)OCCN1CCCCC1)C(C)(C)O2 [Example 30, (3S,4S)-6-Acetyl-4-[(3-chloro-4-fluorobenzene)amido]-2,2-dimethyl-3,4-dihydro-2H-1-benzopyran-3-yl 2-(piperidin-1-yl)ethyl carbonate] |  |  |  | 7 |  | 
CC(=O)c1ccc2c(c1)[C@H](NC(=O)c1ccc(F)c(Cl)c1)[C@H](O)C(C)(C)O2 [Tonabersat, N-[(3S,4S)-6-Acetyl-3-hydroxy-2,2-dimethyl-3,4-dihydro-2H-1-benzopyran-4-yl]-3-chloro-4-fluorobenzamide] |  |  |  |  |  | inhibition of high K+ evoked CSD (high K+ evoked CSD [4]): inhibits; binding affinity to brain site [5]: high affinity; inhibition of high K+ evoked CSD (high K+ evoked CSD [6]): inhibits; binding affinity to brain site [7]: high affinity

The next lines start with results.

solubility ([1]; aqueous buffer, pH not given) [µg/mL] | % exposure of tonabersat after dosing the prodrugs of the invention via: Intravenous dosing (iv) [3] | % exposure of tonabersat after dosing the prodrugs of the invention via: Oral dosing (po) [3] | Structure (SMILES) | IC50 [2] [µM] | inhibition at 11 µM (hERG K+ channel) [%] | other results
< 1000 |  |  | CC(=O)c1ccc2c(c1)[C@H](NC(=O)c1ccc(F)c(Cl)c1)[C@H](OC(=O)OCCN(C)C)C(C)(C)O2 [Example 1, (3S,4S)-6-Acetyl-4-[(3-chloro-4-fluorobenzene)amido]-2,2-dimethyl-3,4-dihydro-2H-1-benzopyran-3-yl 2-(dimethylamino)ethyl carbonate] | > 20 | 25 | 
< 1000 |  |  | CC(=O)c1ccc2c(c1)[C@H](NC(=O)c1ccc(F)c(Cl)c1)[C@H](OC(=O)OCCN1CCOCC1)C(C)(C)O2 [Example 4, (3S,4S)-6-Acetyl-4-[(3-chloro-4-fluorobenzene)amido]-2,2-dimethyl-3,4-dihydro-2H-1-benzopyran-3-yl 2-(morpholin-4-yl)ethyl carbonate] | 9.8 |  | 
 | <LLOQ | <LLOQ | CC(=O)c1ccc2c(c1)[C@H](NC(=O)c1ccc(F)c(Cl)c1)[C@H](OC(=O)N1CCC(N3CCCCC3)CC1)C(C)(C)O2.Cl [Example 18, (3S,4S)-6-Acetyl-4-[(3-chloro-4-fluorobenzene)amido]-2,2-dimethyl-3,4-dihydro-2H-1-benzopyran-3-yl 4-(piperidin-1-yl)piperidine-1-carboxylate hydrochloride] |  | 28 | solubility ([1]; pH 6.3, aqueous buffer): > 10000 µg/mL
